How the values were obtained:
[1] = system: Staphylococcus epidermidis (ATCC 12228); assay: Radial diffusion (inhibition zone) assay; assay type: cell-based; details: S. epidermidis (Gram-positive)
Method: (§1) Antimicrobial assays. E. coli (ATCC 25922), Pseudomonas aeruginosa (ATCC 8427), Salmonella typhimurium (ATCC 13311), Proteus vulgaris (ATCC 8427), Staphylococcus epidermidis (ATCC 12228), and MRSA (ATCC 33591) isolates were maintained on trypticase soy broth (TSB) agar plates. Individual colonies were selected and cultured overnight in TSB, subcultured once at 1:50 in fresh TSB, and then grown to stationary phase for use in all experiments. The radial diffusion assay was performed in 0.5% agarose and 0.75% tryptone brought to ebullition and cooled to 43° C., and then mixed with […] of bacterial suspension and poured into a 10 cm Petri dish. A series of small wells (diameter, 3 mm) were punched in the plate after the agarose solidified. Two microliters of test samples were applied in each well. Plates were incubated at 37° C. overnight to allow visible growth of bacteria. Antibacterial activity was indicated by the clear zone (no bacterial growth) around the well.
(§2) Antimicrobial activity of recombinant cathelin-like protein. Recombinant cathelicidins were tested for antimicrobial activity using a standard radial diffusion assay. Different concentrations of the cathelin-like protein were loaded into wells on assay plates containing Gram-positive MRSA, S. epidermidis, and strains of the Gram-negative bacterial species E. coli, S. enteritidis, P. vulgaris, and P. aeruginosa. […] Similarly, cathelin-like protein inhibited growth of S. epidermidis ([…]) but not S. enteritidis or P. vulgaris.

S. enteritidis = assay: Radial diffusion (inhibition zone) assay; assay type: cell-based
Method: as §1, §2

[2] = system: Pseudomonas aeruginosa (ATCC 8427); assay: Radial diffusion (inhibition zone) assay; assay type: cell-based; details: P. aeruginosa
Method: as §1, §2

E. coli (ATCC 25922) = assay: Radial diffusion (inhibition zone) assay; assay type: cell-based
Method: as §1, §2

MRSA (ATCC 33591) = assay: Radial diffusion (inhibition zone) assay; assay type: cell-based, Staphylococcus aureus; details: MRSA (Gram-positive)
Method: (§3) FIGS. 3A–C show Growth inhibition of MRSA, E. coli, and P. aeruginosa by cathelin-like protein. (a) Inhibition zone ssay on tryptone/agarose plates with MRSA. Clear circles show lack of bacterial growth. Lanes 1, 3, 5, bottom row: cathelin-like protein at […], 16 μM, respectively. Lane 2, top row:[…] of His-tagged cathelin-like protein before cleavage. Lane 4, top: enterokinase enzyme alone. All assays were performed in duplicate and repeated three times. (b), (c) CFU assay: growth inhibition of (b) MRSA and (c) E. coli, cultured in 10 mM phosphate and 1% TSB (pH 7.4) and then supplemented with different concentrations of human cathelin-like protein.
as §1, with “A series of small wells (diameter, 3 mm) were punched in the plate after the agarose solidified. Two microliters of test samples were applied in each well. Plates were incubated at 37° C. overnight to allow visible growth of bacteria. Antibacterial activity was indicated by the clear zone (no bacterial growth) around the well.” left out

E. coli = assay: Colony-forming assay (CFU), liquid phase; assay type: cell-based; parameters: unit of the concentration uncertain; details: 3 (unit uncertain), 10 mM phosphate, 1% TSB, pH 7.4
Method: as §3
(§4) The colony-forming assay (CFU) was performed. Bacterial cultures (E. coli or MRSA) were collected at the logarithmic phase of growth in TSB, washed twice with phosphate-buffered saline, pH 7.4, and diluted to 104 CFU per ml in 10 mM phosphate buffer, pH 7.4, Na2HPO4/NaH2PO4-1% TSB (g per 1). Forty-five microliters of bacterial suspension were mixed with […] of H2O (control) or with […] of different concentrations of cathelin-like proteins, and the mixture was incubated at 37° C. Every 30 min, a […] aliquot of the reaction mixture was plated directly onto a TSB agar plate and then incubated at 37° C. overnight for enumeration of CFU. Data are reported as growth index=final CFU/CFU in initial inoculum. […]

MRSA = assay: Colony-forming assay (CFU), liquid phase; assay type: cell-based, Staphylococcus aureus; details: 10 mM phosphate, 1% TSB, pH 7.4
Method: as §3, §4

| Substance | growth inhibition [1] | growth inhibition (S. enteritidis) | growth inhibition [2] | growth inhibition (E. coli (ATCC 25922)) | growth inhibition (MRSA (ATCC 33591)) | effect on growth (CFU) (E. coli) | effect on growth (CFU) (MRSA) |
| --- | --- | --- | --- | --- | --- | --- | --- |
| CRAMP [reference compound] | inactive | highly active | highly active | highly active | inactive |  |  |
| LL-37: C-terminal 37 amino acid mature antimicrobial peptide of human hCAP18 (LLGDFFRKSKEKIGKEFKRIVQRIKDFLRNLVPRTES) [reference compound] | inactive | highly active | highly active | highly active | inactive | bactericidal | no effect |

From patent US7173007B1, “Therapy for microbial infections” (The Regents of the University of California, priority 2003, dated 2007)
